US8017611B2, “Pyridine and pyrazine derivatives -083” (AstraZeneca AB, priority 2007, dated 2011)
Like-named read-outs stand apart in the source and are kept apart here. Marks after values point to notes of the source that are not given here.

Experiments:
[1] = target: T1, Axl expressed on NCI H1299 lung large cell carcinoma cells (Homo sapiens, UniProt P30530); test: Cellular phospho-Axl ELISA assay, Test (b)
T1 sequence (P30530 26-894): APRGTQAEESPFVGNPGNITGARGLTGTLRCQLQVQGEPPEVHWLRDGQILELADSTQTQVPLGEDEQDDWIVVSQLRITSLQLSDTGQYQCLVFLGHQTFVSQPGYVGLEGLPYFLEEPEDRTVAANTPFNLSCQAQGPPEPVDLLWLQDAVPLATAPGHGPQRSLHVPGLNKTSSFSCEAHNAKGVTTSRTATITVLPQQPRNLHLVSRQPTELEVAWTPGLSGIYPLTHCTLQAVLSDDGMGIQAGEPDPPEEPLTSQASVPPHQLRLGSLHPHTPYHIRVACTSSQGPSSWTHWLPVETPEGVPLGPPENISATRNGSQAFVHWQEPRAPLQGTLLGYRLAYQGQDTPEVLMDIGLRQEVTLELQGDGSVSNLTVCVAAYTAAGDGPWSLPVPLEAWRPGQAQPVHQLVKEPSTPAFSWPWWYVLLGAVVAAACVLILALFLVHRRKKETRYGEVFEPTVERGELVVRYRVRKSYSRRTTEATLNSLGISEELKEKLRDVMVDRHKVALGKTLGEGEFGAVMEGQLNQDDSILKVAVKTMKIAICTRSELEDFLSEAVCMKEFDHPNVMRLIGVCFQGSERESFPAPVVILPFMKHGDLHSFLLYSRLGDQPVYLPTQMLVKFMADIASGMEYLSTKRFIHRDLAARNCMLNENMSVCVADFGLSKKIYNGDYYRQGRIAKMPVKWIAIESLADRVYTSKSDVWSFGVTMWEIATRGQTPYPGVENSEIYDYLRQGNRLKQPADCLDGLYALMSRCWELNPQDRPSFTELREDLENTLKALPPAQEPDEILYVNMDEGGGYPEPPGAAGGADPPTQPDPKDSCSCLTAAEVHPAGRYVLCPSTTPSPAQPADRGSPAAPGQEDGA
Experimental: This assay uses a conventional ELISA method to determine the ability of test compounds to inhibit phosphorylation of tyrosine residues in Axl.
100 μl Aliquots were seeded into each of the wells of a clear 96 well tissue culture plate and the plates were incubated overnight at 37° C. with 5% CO2 to allow the cells to adhere to the wells.
Aliquots of each compound concentration were added to the cells in each well using the Echo 550 (Labcyte Inc., Sunnyvale, Calif., US). Control cells received DMSO only. The cells were incubated for 2 hours at 37° C. with 5% CO2.
The resultant tissue culture plates were incubated on ice for 30 minutes to ensure full lysis.
The wells were washed 3 times with 250 μl per well of PBS containing 0.05% v/v Tween (PBS/T). The wells were treated with 3% w/v BSA in PBS at ambient temperature for 2 hours and subsequently washed 3 times with 250 μl per well of PBS/T.
50 μl Aliquots of the NCI H1299 cell lysates were added to the ELISA plates.
100 μl Aliquots of substrate solution were added to each of the wells and fluorescence was read on a Tecan Ultra plate reader (Tecan UK Ltd., Reading, Berkshire, UK).

[2] = target: T2, recombinant Axl tyrosine kinase (Homo sapiens, UniProt P30530); test: In vitro Axl kinase assay (AlphaScreen), Test (a); format: biochemical; settings: for IC50: Test (a), read-out: IC50 versus Axl tyrosine kinase; for % Axl tyrosine kinase inhibition at 1 μM concentration / inhibition at 1 µM: test compound at 1 μM, first value quoted; for inhibition at 1 µM: read-out: % Axl tyrosine kinase inhibition at 1 μM concentration
T2 construct: encompassing amino acids 473 to 894 of Axl; GST (N); made in house; host or cells: SF126 insect cells
T2 sequence (P30530 473-894): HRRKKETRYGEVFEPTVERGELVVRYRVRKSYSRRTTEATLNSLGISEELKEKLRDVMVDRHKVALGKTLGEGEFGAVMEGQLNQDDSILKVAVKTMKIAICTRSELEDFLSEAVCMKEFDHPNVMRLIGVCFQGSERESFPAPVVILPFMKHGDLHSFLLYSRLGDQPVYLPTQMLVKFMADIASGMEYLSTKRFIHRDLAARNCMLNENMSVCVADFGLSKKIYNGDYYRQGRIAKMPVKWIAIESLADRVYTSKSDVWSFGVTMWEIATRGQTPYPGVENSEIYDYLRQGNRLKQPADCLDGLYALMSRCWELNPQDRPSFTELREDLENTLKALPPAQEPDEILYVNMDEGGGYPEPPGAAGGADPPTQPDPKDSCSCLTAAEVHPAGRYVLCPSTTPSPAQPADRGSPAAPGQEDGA

[3] = read-out: IC50 versus cellular phospho-Axl, Test (b), footnotes of Table A
[4] = read-out: IC50 versus cellular phospho-Axl, Test (b), NCI H1299 cells stimulated with GAS6

Structure (SMILES)	% Axl tyrosine kinase inhibition at 1 μM concentration [2]	other results
CN1CCC(n2cc(-c3cnc(N)c(-c4nc5ncc(F)cc5o4)c3)cn2)CC1 [Example 41.7]	–	IC50 [1, 3]: ~234 nM
COCc1nn(C2CCN(C)CC2)cc1-c1cnc(N)c(-c2nc3ccccc3o2)c1 [Example 41.26]	100.0%	IC50 [2]: ~0.3 nM; IC50 [1, 4]: ~3 nM
Cc1nn(C2CCNCC2)cc1-c1cnc(N)c(-c2nc3ccccc3o2)c1 [Example 22, 3-(1,3-benzoxazol-2-yl)-5-[3-methyl-1-(4-piperidyl)pyrazol-4-yl]pyridin-2-amine]	–	IC50 [2]: ~0.4 nM; inhibition at 1 µM [2]: 100%; IC50 [1]: ~16 nM
Nc1ncc(-c2cnn(C3CCNCC3)c2)cc1-c1nc2ccccc2s1 [Example 14, 3-(1,3-Benzothiazol-2-yl)-5-[1-(4-piperidyl)pyrazol-4-yl]pyridin-2-amine]	–	inhibition at 1 µM [2]: 99.9%; IC50 [1]: ~101 nM
Nc1ncc(-c2ccc(C3CCNCC3)cc2)cc1-c1nc2ccccc2o1 [Example 2.18]	^#99.8%	IC50 [1, 3]: ~70 nM
CN1CCC(n2cc(-c3cnc(N)c(-c4nc5ccccc5o4)c3)c(CO)n2)CC1 [Example 41.19]	100.0%	IC50 [2]: ~0.8 nM; IC50 [1, 4]: ~7 nM
CN(C)CCNC(=O)c1ccc(-c2cnc(N)c(-c3nc4ccccc4o3)c2)cc1 [Example 2.41]	99.9%	–
CNC(=O)CN1CCC(n2cc(-c3cnc(N)c(-c4nc5ccccc5o4)c3)c(COC)n2)CC1 [Example 68, 2-[4-[4-[6-amino-5-(1,3-benzoxazol-2-yl)-3-pyridyl]-3-(methoxymethyl)pyrazol-1-yl]-1-piperidyl]-N-methyl-acetamide]	–	inhibition at 1 µM [2]: 100%
COc1cc(-c2cnc(N)c(-c3nc4ncccc4o3)c2)ccc1N1CCNCC1 [Example 25.8]	99.8%	–
COCc1nn(C2CCN(C)CC2)cc1-c1cnc(N)c(-c2nc3c(C#N)cccc3o2)c1 [Example 41.39]	100.0%	–
Nc1ncc(-c2cccc(CN3CCCC3)c2)cc1-c1nc2ccccc2o1 [Example 2.6]	99.0%	–
COc1cc(-c2cnc(N)c(-c3nc4ncccc4o3)c2)ccc1OCC1CCCNC1 (stereo not shown) [Example 43C.33]	99.8%	–
NC(=O)CN1CCC(n2cc(-c3cnc(N)c(-c4nc5ccccc5o4)c3)cn2)CC1 [Example 53.6]	100.0%	–
Nc1ncc(-c2cnn(CCCN3CCC(O)C3)c2)cc1-c1nc2ccccc2o1 (stereo not shown) [Example 31.1]	100.0%	–
Cc1nn(C2CCNCC2)cc1-c1cnc(N)c(-c2nc3c(C#N)cccc3o2)c1 [Example 62.11]	99.8%	–
Nc1ncc(-c2ccc(C(=O)NCCN3CCOCC3)cc2)cc1-c1nc2cccnc2o1 [Example 45A.51]	98.5%	–
CN(C)S(=O)(=O)c1cccc(-c2cnc(N)c(-c3nc4ccccc4o3)c2)c1 [Example 2.39]	17.1* %	% of Axl tyrosine kinase activity inhibited at a concentration of 30 μM ([2]; test compound at 30 μM): *the compound disclosed in Example 2.39 inhibited 58.6% of Axl tyrosine kinase activity at a concentration of 30 μM.

Structure (SMILES)	% Axl tyrosine kinase inhibition at 1 μM concentration [2]	other results
CN1CCC(Oc2ccc(-c3cnc(N)c(-c4nc5ncccc5o4)c3)cc2)CC1 [Example 43B.11]	98.1%	–
Cc1cccc2nc(-c3cc(-c4cnn(C5CCN(C)CC5)c4)cnc3N)oc12 [Example 36, 3-(7-methyl-1,3-benzoxazol-2-yl)-5-[1-(1-methyl-4-piperidyl)pyrazol-4-yl]pyridin-2-amine]	–	inhibition at 1 µM [2]: 100%
Nc1ncc(-c2cccc(S(=O)(=O)N3CCOCC3)c2)cc1-c1nc2ccccc2o1 [Example 47, 3-(1,3-Benzoxazol-2-yl)-5-(3-morpholinosulphonylphenyl)pyridin-2-amine]	–	inhibition at 30 µM ([2]; test compound at 30 μM, read-out: % of Axl tyrosine kinase activity inhibited at a concentration of 30 μM): 99.5%
COCc1cccc(-c2cnc(N)c(-c3nc4ncccc4o3)c2)c1 [Example 10A.16]	99.9%	–
CN1CCN(CCOc2ccc(-c3cnc(N)c(-c4nc5ncccc5o4)c3)cc2)CC1 [Example 43B.7]	98.1%	–
Nc1ncc(-c2ccc(CN3CCOCC3)cc2)cc1-c1nc2cccnc2o1 [Example 9A.21]	95.6%	–
CN(C)C1CCN(C(=O)c2ccc(-c3cnc(N)c(-c4nc5cccnc5o4)c3)cc2)CC1 [Example 45A.1]	92.9%	–
Nc1ncc(-c2ccc(C(=O)N3CCN(Cc4cccnc4)CC3)cc2)cc1-c1nc2cccnc2o1 [Example 45A.61]	95.1%	–
CN1CCCCC1CNC(=O)c1ccc(-c2cnc(N)c(-c3nc4cccnc4o3)c2)cc1 (stereo not shown) [Example 45A.26]	99.6%	–
Nc1ncc(-c2ccc(C(=O)N3CCCC3CN3CCOCC3)cc2)cc1-c1nc2cccnc2o1 (stereo not shown) [Example 45A.16]	94.2%	–
Nc1ncc(-c2cnn(CCN3CCNCC3)c2)cc1-c1nc2ccccc2o1 [Example 32, 3-(1,3-benzoxazol-2-yl)-5-[1-(2-piperazin-1-ylethyl)pyrazol-4-yl]pyridin-2-amine]	–	inhibition at 1 µM [2]: 99.9%
Nc1ncc(-c2ccc(C(=O)NCCCN3CCCCC3)cc2)cc1-c1nc2cccnc2o1 [Example 45A.9]	99.0%	–
Nc1ncc(-c2ccc(OCCCN3CCCC3)cc2)cc1-c1nc2ncccc2o1 [Example 43B.18]	99.9%	–
CN1CCC(Cn2cc(-c3cnc(N)c(-c4nc5ccccc5o4)c3)cn2)C1 (stereo not shown) [Example 41.15]	98.4%	–
Nc1ncc(-c2ccc(C(=O)NC3CCNCC3)cc2)cc1-c1nc2cccnc2o1 [Example 45A.103]	97.3%	–
CN(C)CCC1CCN(C(=O)c2ccc(-c3cnc(N)c(-c4nc5cccnc5o4)c3)cc2)CC1 [Example 45A.14]	89.9%	–
CCNS(=O)(=O)c1cccc(-c2cnc(N)c(-c3nc4ccccc4o3)c2)c1 [Example 48, 3-[6-Amino-5-(1,3-benzoxazol-2-yl)-3-pyridyl]-N-ethyl-benzenesulphonamide]	–	inhibition at 1 µM [2]: 93.5%
